Source: patent US20260076937A1, “COMPOSITION FOR PREVENTING OR TREATING AUTOIMMUNE DISEASES COMPRISING A BCAT1 INHIBITOR” (Seoul National University R&DB Foundation, priority 2024, published 2026)
“Also recorded” adds a separate entry of the source.

Tests used:
[1] = system: human CD4+ naive and memory T cells; experiment: CFSE dilution proliferation assay; type: cell-based; conditions: anti-CD3/CD28 microbeads; Bi2 10 μM, JPH203 10 μM, LβhL 400 mg/L
Description: To analyze T cell proliferative capacity, purified isolated human CD4+ T cells were labeled with 1 μM carboxyfluorescein succinimidyl ester (CFSE; Invitrogen, Waltham, MA, USA) and then stimulated with anti-CD3/CD28 antibody coated microbeads for 4 days at 37° C. Cells were stained with 7AAD (BD Biosciences) for 10 minutes to distinguish dead cells and the extent of CFSE dilution in 7AAD-cells was measured by BD LSRFortessa to analyze proliferative capacity. Antibodies listed in Table 2 and previously known BD LSRFortessa cell analyzers were used.

[2] = system: TCR-stimulated human CD4+ naive T cells; experiment: Cytokine ELISA of culture supernatants, CD4+ naive T cells; type: cell-based; conditions: TCR stimulation 3 days
[3] = system: human CD4+ memory T cells; experiment: Cholesterol analysis in cell lysates; type: cell-based; conditions: TCR stimulation 3 days; Bi2 10 μM, statin 10 μM
Description: Total cholesterol amount in cultured cells was determined using a fluorometric Amplex™ Red Cholesterol Assay Kit (Thermo Fisher Scientific) according to the manufacturer's instructions.

SKG mice = experiment: Curdlan-induced arthritis in SKG mice; type: in vivo, mouse
Description: Eight-week-old female SKG mice used for induction of autoimmune arthritis [e.g., Rheumatoid Arthritis (RA)] were purchased from CLEA Japan (Tokyo, Japan). All mice were bred and managed in a sterile facility at Seoul National University School of Medicine. All experiments were approved by Seoul National University Institutional Animal Experimentation Ethics Committee (IACUC) (approval number: SNU-230825-2-2). At 8 weeks of age, 3 mg/mice curdlan (Wako, Japan) in 300 μl sterile PBS was injected intraperitoneally (i.p.) into mice. Ankle thickness was measured using calipers (Manostat, New York, NY). […] 0 point: no joint swelling; 0.1 point: single finger joint swelling; 0.5 point: minor swelling of wrist, ankle or tail base; 1.0 point: severe swelling of […], […] or tail base. Scores for all joints of each mouse were summed. Mice were euthanized at the end of the experiment and immune cells were extracted from inguinal lymph nodes (inguinal LNs) and joint cells.

HIF-1α [4] = experiment: HIF-1α immunoblot in TCR-stimulated CD4+ memory T cells; type: cell-based, human; conditions: TCR-stimulated CD4+ memory T cells; Bi2 10 μM, CoCl2 100 μM, VH298 100 μM, MG132 5 μM
Description: Cells were cultured in radioimmunoprecipitation assay (RIPA) buffer (150 mM NaCl, 10 mM Na2HPO4, pH 7.2, 1% Nonidet P-40, 0.5% deoxycholate) containing phenylmethylsulfonyl fluoride (PMSF; Millipore Sigma, Burlington, MA), EDTA, protease and phosphatase inhibitor cocktail (Thermo Fisher Scientific) to extract total protein. Proteins were separated on 8-10% SDS-polyacrylamide gels and blotted onto polyvinylidene difluoride (PVDF) membranes (Bio-Rad, Hercules, CA) followed by 5% BSA in Tris buffered saline (TBS) with 0.1% Tween 20 and blocked for 1 hour. Membranes were cultured overnight with anti-human SLC7A5, anti-BCAT, anti-phospho-p70S6K, anti-p70S6K, anti-HIF-1α (all provided by Cell Signaling Technology, Danvers, MA) primary antibodies at 4° C., followed by culture with HRP-conjugated secondary antibodies for 1 hour at room temperature. Membranes were developed using SuperSignal West Femto Maximum Sensitivity Substrate or SuperSignal West Pico PLUS Chemiluminescent Substrate system (Thermo Fisher Scientific).

mouse CD4+ naive T cells = experiment: Th17/Th1 polarization of mouse CD4+ naive T cells from iLN; type: cell-based; conditions: Bi2 10 μM
Description: Blocking BCAT1 with Bi2 attenuates Th17 differentiation in mice. In FIG. 13A mRNA expression of slc7a5 and bcat1 in mouse inguinal LN (iLN) cells was analyzed by RT-qPCR at 24 hours after TCR stimulation with anti-CD3/CD28 antibody (n=5). In FIG. 13B protein expression of BCAT1 in mouse inguinal LN cells was analyzed at 24 hours after stimulation of TCR with anti-CD3/CD28 antibody (n=5). In FIGS. 13C to 13D, mouse CD4^+ naive T cells derived from iLN were differentiated under […] or Th1 polarization conditions for 5 days in the presence of Bi2 (10 μM). The amounts of IFN-γ (c) and IL-17A (d) in the culture supernatants of Th1 and Th17 cells (n=5) are shown. In FIG. 13E, the cells of mouse iLN were stimulated with anti CD3/CD28 antibody in the presence of Bi2 (10 μM) for 24 hours. Cell lysates were immunoblotted for HIF-1α (n=3 independent experiments). Cells treated with COCl2 served as a positive control for HIF-1α. […] FIG. 13F is a representative histogram plot of intracellular HIF-1α in cells of mouse iLN. Cells were stimulated with anti CD3/CD28 antibody in the presence of Bi2 (10 μM) for 24 hours. […] The significance was indicated as *=p<0.05, **=p<0.01, ***=p<0.001, according to Mann-Whitney U test (a, c, d, f) or the two-tailed non-pair t test (b, e)).

HIF-1α [5] = experiment: RT-qPCR of HIF-1α and HIF-1α target genes in CD4+ memory T cells; type: cell-based, human
Description: Total RNA was prepared using TRIzol reagent (Life Technologies, Grand Island, NY), followed by cDNA synthesis (Promega, Madison, WI), followed by real-time quantitative RT-PCR with a CFX system (Bio-Rad, Hercules, CA) using SensiFAST SYBR® Lo-ROX (Bioline, London. UK). Gene expression levels were normalized for […] expression using the comparative CT method (ΔΔCT).

EAE mice = experiment: Experimental autoimmune encephalomyelitis (EAE) model; type: in vivo, mouse
[6] = Bi2 i.p. twice a week for 3 weeks
[7] = Bi2 10 mg/kg or LβhL 1 g/kg i.p.
[8] = Bi2 10 mg/kg or LβhL 1 g/kg i.p., 10 mg/kg

SMILES: O=C(NNS(=O)(=O)c1ccccc1C(F)(F)F)c1cc2cc(Cl)ccc2o1 [Bi2, BCATc inhibitor 2]
- proliferation (CFSE dilution) [1]: no effect on proliferation
- IL-2 production by CD4+ naive T cells [2]: not affected
- intracellular cholesterol [3]: slight increase; also recorded: significantly increased
- ifng, tgfb1 expression in synovial cells (SKG mice; [6]): significantly reduced
- ratio of Th17 cells in CD3+CD4+ T cells in inguinal lymph nodes (SKG mice; [6]): significantly reduced
- arthritis score (SKG mice; Bi2 i.p. twice a week for 3 weeks after curdlan): significantly lower; also recorded: alleviates
- HIF-1α protein expression (HIF-1α [4]): significantly inhibited
- IFN-γ production (mouse CD4+ naive T cells; Th1 polarization 5 days): failed to inhibit
- differentiation of Th17 cells (IL-17A) (mouse CD4+ naive T cells; Th17 polarization 5 days): preferentially inhibited; also recorded: attenuates
- HIF-1α mRNA expression (HIF-1α [5]; 4 hours after TCR stimulation): reduced
- expression of SCL2A1, LDHA and PGK1 mRNA (HIF-1α target genes) (HIF-1α [5]; 72 hours of TCR stimulation): reduced
- HIF-1α expression in SCMC (immunoblot) (EAE mice; Bi2 10 mg/kg i.p.): decreased
- absolute number of Th17 cells co-producing IFN-γ/IL-17A (EAE mice; Bi2 10 mg/kg i.p.): significantly reduced
- absolute number of spinal cord mononuclear cells (SCMC) (EAE mice; Bi2 10 mg/kg i.p.): significantly lower
- proportion of CD4+ T-cells in SCMC (EAE mice; Bi2 10 mg/kg i.p.): significantly lower
- relative proportion of Th17 cells co-producing IFN-γ/IL-17A (EAE mice; Bi2 10 mg/kg i.p.): did not change
- cell infiltration in spinal cord (EAE mice; [7]): decrease
- nerve damage, spinal cord histology (EAE mice; [7]): decrease
- CD4+ T-cells producing IL-17A in spinal cord infiltrates and draining LN (EAE mice; [8]): preferentially reduced
- HIF-1α expression in CD4+ T-cells of spinal cord (intracellular staining) (EAE mice; [8]): preferentially in CD4+ T-cells in SCMC but not in CD11b+F4/80+ macrophages; also recorded: reduced
- EAE clinical score / severity (EAE mice; i.p. three times a week for 14 days, Bi2 10 mg/kg, LβhL 1 g/kg, 10 mg/kg): significantly lower; also recorded: alleviating the severity of disease
